Laboratory results: patent US12630498B2 (Genzyme Corporation, priority 2019, dated 2026)

Assays:
[1] = biological target: T1, human Cystic Fibrosis Transmembrane Conductance Regulator (CFTR) harboring the ΔF508 mutation (Homo sapiens, UniProt P13569, DEL508-508); test: H441 cell ΔF508-CFTR-HRP cell surface assay (Emax and EC50); type: cell-based; conditions: for Emax: NCI-H441, NA = Not active
T1 construct: expressed in transfected cells; host or cells: H441 carcinoma line (G418-selected)
Outline: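 H441 and 41o- bronchial epithelial cells expressing ΔF508-CFTR with an extracellular-loop-4 HRP tag were treated with a 15-point compound series (24.5–0.001 μM) for two nights, H441 at 27° C, 41o- at 37° C with 0.0005 mg/ml doxycycline. Surface HRP luminescence read; % of maximum VX809 signal and EC50 derived.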

[2] = biological target: T2, CFTR-mediated transepithelial chloride transport in primary human bronchial epithelial cells from a ΔF508 homozygous CF donor (Homo sapiens, UniProt P13569, DEL508-508); test: TECC24 recording of CFTR-mediated transepithelial chloride transport in CF-HBE cells (AUC fold over DMSO); type: cell-based; conditions: test agent 10 μM, 48 hours incubation, AUC of forskolin-stimulated IEQ relative to DMSO
T2 construct: Primary human bronchial epithelial cells from a ΔF508 homozygous CF donor; host or cells: primary CF-HBE cells, ΔF508 homozygous donor
T2 sequence (P13569 with tags, fused parts or gaps DEL508-508): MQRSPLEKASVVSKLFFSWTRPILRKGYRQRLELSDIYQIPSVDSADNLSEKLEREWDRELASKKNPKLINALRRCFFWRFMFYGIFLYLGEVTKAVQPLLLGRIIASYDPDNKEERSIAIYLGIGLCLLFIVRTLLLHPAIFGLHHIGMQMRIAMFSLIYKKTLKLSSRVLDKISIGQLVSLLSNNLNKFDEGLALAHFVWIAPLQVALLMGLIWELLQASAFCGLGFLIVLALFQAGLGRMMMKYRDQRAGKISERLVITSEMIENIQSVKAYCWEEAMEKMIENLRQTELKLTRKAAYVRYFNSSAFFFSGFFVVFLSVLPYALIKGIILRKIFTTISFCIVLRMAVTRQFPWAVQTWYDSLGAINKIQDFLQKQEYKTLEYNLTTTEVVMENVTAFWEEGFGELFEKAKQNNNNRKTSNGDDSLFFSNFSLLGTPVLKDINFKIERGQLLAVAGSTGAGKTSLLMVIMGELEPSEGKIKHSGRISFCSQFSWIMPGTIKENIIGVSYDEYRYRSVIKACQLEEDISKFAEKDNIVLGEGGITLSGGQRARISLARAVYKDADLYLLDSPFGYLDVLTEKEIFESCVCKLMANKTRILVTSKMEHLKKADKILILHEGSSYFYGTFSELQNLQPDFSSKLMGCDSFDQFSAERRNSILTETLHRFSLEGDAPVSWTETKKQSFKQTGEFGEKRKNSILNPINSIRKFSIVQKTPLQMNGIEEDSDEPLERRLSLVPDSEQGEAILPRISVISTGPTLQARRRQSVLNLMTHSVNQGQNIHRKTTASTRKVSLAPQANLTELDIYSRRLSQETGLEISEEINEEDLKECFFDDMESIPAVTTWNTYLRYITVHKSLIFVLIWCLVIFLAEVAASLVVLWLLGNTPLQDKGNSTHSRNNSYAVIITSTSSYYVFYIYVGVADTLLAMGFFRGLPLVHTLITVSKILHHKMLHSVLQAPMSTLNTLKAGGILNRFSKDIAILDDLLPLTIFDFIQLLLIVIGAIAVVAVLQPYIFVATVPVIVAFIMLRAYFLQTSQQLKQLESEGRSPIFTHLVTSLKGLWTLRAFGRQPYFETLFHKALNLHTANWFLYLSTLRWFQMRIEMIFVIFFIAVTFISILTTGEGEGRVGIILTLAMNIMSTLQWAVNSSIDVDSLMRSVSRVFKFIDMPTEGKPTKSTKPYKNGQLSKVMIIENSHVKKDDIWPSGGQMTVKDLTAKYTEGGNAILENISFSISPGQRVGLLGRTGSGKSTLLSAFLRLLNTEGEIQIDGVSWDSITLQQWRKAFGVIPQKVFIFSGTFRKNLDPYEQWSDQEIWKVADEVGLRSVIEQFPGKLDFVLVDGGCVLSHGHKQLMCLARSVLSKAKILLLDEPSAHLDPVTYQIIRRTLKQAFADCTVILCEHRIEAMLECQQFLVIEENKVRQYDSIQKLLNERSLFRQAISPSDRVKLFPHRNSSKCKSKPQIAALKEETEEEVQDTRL
Outline: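 Primary ΔF508/ΔF508 CF-HBE cells on inserts exposed to test agent in IL-13-containing medium for 48 h at 36.5 °C. Current-clamp VT/TEER recording in pH 7.4 HEPES saline with benzamil 10 μM, forskolin 10 μM, then CFTRinh-172 20 μM. AUC of equivalent Cl⁻ current between forskolin and inhibitor, expressed as ratio over vehicle.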

T1 sequence (P13569 with tags, fused parts or gaps DEL508-508): as above

| Compound | EC50 [1] | Emax [1] | TECC24 AUC fold over DMSO @10 μM [2] |
| --- | --- | --- | --- |
| O=C(N[C@@H](Cc1ccccc1)C(=O)O)c1ccc2ccccc2c1OCc1ccc(Cl)c(Cl)c1 [Example 99, (1-((3,4-dichlorobenzyl)oxy)-2-naphthoyl)-L-phenylalanine] | 5700 nM | 83.1% | C (“C” refers to AUC @10 uM <4) |
| O=C(N[C@H](C(=O)O)C(c1ccccc1)c1ccccc1)c1ccc2cc(F)ccc2c1OCc1ccc(C(F)(F)F)cc1 [Example 196] | 300 nM | 101% | C (“C” refers to AUC @10 uM <4) |
| CC(C)Oc1ccc2c(OCc3ccc(C(F)(F)F)cc3)c(C(=O)N[C@H](C(=O)O)C(C)(C)C)ccc2c1 [Example 260, (2S)-2-[[6-isopropoxy-1-[[4-(trifluoromethyl)phenyl]methoxy]naphthalene-2-carbonyl]amino]-3,3-dimethyl-butanoic Acid] | 1500 nM | 70.2% | C (“C” refers to AUC @10 uM <4) |
| CC(C)(C)[C@H](NC(=O)c1ccc2c(F)cccc2c1OCc1ccc(C(F)(F)F)cc1)C(=O)O [Example 236, (2S)-2-[[5-fluoro-1-[[4-(trifluoromethyl)phenyl]methoxy]naphthalene-2-carbonyl]amino]-3,3-dimethyl-butanoic Acid] | 1000 nM | 130% | B (“B” refers to AUC @10 uM between 4-6) |
| CCC(C)(C)C(NC(=O)c1ccc2ccc(C)cc2c1OCc1ccc(OC(F)(F)F)cc1)C(=O)O (centres unmarked) [Example 276, 3,3-dimethyl-2-(7-methyl-1-((4-(trifluoromethoxy)benzyl)oxy)-2-naphthamido)pentanoic Acid] | 300 nM | 309% | A (“A” refers to AUC @10 uM >6) |

Now from value to compound:

| EC50 [1] | Emax [1] | TECC24 AUC fold over DMSO @10 μM [2] | Compound |
| --- | --- | --- | --- |
| – | 1.1% | C (“C” refers to AUC @10 uM <4) | O=C(N[C@@H](Cc1ccccc1)C(=O)O)c1ccc2ccccc2c1OCCc1ccc(C(F)(F)F)cc1 [Example 97, (1-(4-(trifluoromethyl)phenethoxy)-2-naphthoyl)-L-phenylalanine] |
| 800 nM | 272% | C (“C” refers to AUC @10 uM <4) | CC(C)(C)[C@H](NC(=O)c1ccc2ccccc2c1OCc1ccc(C(F)(F)F)cc1F)C(=O)O [Example 70, (S)-2-(1-((2-fluoro-4-(trifluoromethyl)benzyl)oxy)-2-naphthamido)-3,3-dimethylbutanoic Acid] |
| 100 nM | 103% | B (“B” refers to AUC @10 uM between 4-6) | O=C(N[C@H](C(=O)O)C12CCC(CC1)C2)c1ccc2ccccc2c1OCc1ccc(OC(F)(F)F)cc1 [Example 14, (S)-2-((1r,4S)-bicyclo[2.2.1]heptan-1-yl)-2-(1-((4-(trifluoromethoxy)benzyl)oxy)-2-naphthamido)acetic Acid] |
